Type in all cases: biochemical
Conditions in all cases: RB Protein 3 μM substrate, 33P-ATP 1 μM, 10-dose IC50 mode, 3-fold dilution starting at 0.1 μM

One experiment concerns the target CDK4/cyclin D1 (Homo sapiens, UniProt P11802). As to the kind of experiment: Radiometric 33P-ATP filter-binding kinase assay, CDK4/cyclin D1. As for the experimental part: (§1) CDK4/cyclin D1, CDK4/cyclin D3, CDK6/cyclin D1, and CDK6/cyclin D3 were added to freshly prepared substrate solution (RB Protein, 3 μM) which was in freshly made reaction buffer (20 mM Hepes (pH 7.5), 10 mM MgCl2, 1 mM EGTA, 0.02% Brij35, 0.02 mg/mL BSA, 0.1 mM Na3VO4, 2 mM DTT, 1% DMSO) and gently mixed, respectively. Compound 1.HCl was tested in a 10-dose IC50 mode with 3-fold dilution starting at 0.1 μM. Compound 1.HCl was prepared and diluted in DMSO and was delivered into the kinases/substrate reaction mixture by Acoustic technology (Echo550; nanoliter range), then incubated for 20 min at room temperature. Then 33P-ATP (1 μM) was added into the reaction mixture to initiate the reaction. The kinase reaction was incubated at room temperature for 2 hours. The reactions were spotted onto P81 ion-exchange paper and radioactivity was detected by filter-binding method. The kinase activity data were expressed as the percent remaining kinase activity in test samples compared to vehicle (Dimethyl Sulfoxide) reactions. […] HCl were determined for all 4 kinases: CDK4/cyclin D1, CDK4/cyclin D3, CDK6/cyclin D1, and CDK6/cyclin D3 and are shown in Table 2, as compared with those of ethylated counterpart, namely N-(5-((4-ethylpiperazin-1-yl)methyl)pyridin-2-yl)-5-fluoro-4-(3-isopropyl-2-methyl-2H-indazol-5-yl)pyrimidin-2-amine, or compound 37. […]

Another experiment has as its target CDK4/cyclin D3 (Homo sapiens, UniProt P11802). The experiment is described as follows: Radiometric 33P-ATP filter-binding kinase assay, CDK4/cyclin D3. As for the experimental part: as §1
The target of the next experiment is CDK6/cyclin D1 (Homo sapiens, UniProt Q00534). The experiment is described as follows: Radiometric 33P-ATP filter-binding kinase assay, CDK6/cyclin D1. As for the experimental part: as §1
CDK6/cyclin D1, sequence (Q00534 whole entry, species assumed): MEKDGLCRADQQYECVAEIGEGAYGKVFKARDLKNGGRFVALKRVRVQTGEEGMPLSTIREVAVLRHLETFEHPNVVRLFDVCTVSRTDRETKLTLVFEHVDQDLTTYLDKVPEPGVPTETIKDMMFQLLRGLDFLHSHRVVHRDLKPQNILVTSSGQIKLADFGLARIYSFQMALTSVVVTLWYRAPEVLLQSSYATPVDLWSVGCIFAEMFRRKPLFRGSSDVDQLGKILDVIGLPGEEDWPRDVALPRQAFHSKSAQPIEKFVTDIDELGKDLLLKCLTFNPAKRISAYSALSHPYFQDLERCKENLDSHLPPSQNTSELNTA
CDK6/cyclin D1, sequence (P24385 whole entry partner, species assumed): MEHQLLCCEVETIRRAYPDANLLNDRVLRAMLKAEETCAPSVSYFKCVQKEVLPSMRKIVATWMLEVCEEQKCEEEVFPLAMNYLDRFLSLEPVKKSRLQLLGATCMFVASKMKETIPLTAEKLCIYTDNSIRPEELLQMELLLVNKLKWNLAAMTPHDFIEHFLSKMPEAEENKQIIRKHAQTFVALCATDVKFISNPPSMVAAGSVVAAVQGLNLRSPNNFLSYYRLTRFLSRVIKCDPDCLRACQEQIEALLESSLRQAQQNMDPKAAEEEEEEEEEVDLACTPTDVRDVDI
The target in a further experiment is CDK6/cyclin D3 (Homo sapiens, UniProt Q00534). As to the kind of experiment: Radiometric 33P-ATP filter-binding kinase assay, CDK6/cyclin D3. As for the experimental part: as §1
CDK6/cyclin D3, sequence (Q00534 whole entry, species assumed): as the sequence (Q00534 whole entry, species assumed) above
CDK6/cyclin D3, sequence (P30281 whole entry partner, species assumed): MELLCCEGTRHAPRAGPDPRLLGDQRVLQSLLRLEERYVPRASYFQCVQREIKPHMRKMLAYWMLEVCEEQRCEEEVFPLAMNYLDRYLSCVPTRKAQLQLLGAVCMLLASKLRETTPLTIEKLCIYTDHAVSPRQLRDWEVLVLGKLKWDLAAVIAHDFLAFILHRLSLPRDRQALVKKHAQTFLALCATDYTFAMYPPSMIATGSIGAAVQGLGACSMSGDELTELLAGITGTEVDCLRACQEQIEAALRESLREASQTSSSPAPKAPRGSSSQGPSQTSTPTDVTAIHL

Structures can show the parent of a compound that is named as a salt.

CDK4/cyclin D1, sequence (P11802 whole entry, species assumed): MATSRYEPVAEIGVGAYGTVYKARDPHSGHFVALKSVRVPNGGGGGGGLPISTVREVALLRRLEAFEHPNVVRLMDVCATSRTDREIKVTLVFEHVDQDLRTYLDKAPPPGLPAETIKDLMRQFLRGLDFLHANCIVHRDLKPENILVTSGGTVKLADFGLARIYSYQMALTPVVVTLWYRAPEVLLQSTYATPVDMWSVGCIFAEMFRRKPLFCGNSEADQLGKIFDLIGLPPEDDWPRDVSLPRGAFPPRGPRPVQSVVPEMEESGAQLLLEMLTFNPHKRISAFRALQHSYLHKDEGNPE
CDK4/cyclin D1, sequence (P24385 whole entry partner, species assumed): as the sequence (P24385 whole entry partner, species assumed) above
CDK4/cyclin D3, sequence (P11802 whole entry, species assumed): as the sequence (P11802 whole entry, species assumed) above
CDK4/cyclin D3, sequence (P30281 whole entry partner, species assumed): as the sequence (P30281 whole entry partner, species assumed) above

For the molecule `CC(C)c1c2cc(-c3nc(Nc4ccc(CN5CCNCC5)cn4)ncc3F)ccc2nn1C` [1•HCl, 5-Fluoro-4-(3-isopropyl-2-methyl-2H-indazol-5-yl)-N-(5-(piperazin-1-ylmethyl)pyridin-2-yl)pyrimidin-2-amine hydrochloride], the IC50 on CDK4/cyclin D1 was 0.705 nM; at CDK4/cyclin D3, 3.99 nM; on CDK6/cyclin D1, 1.11 nM; at CDK6/cyclin D3, 25.6 nM.
In the same order, the values of `CCN1CCN(Cc2ccc(Nc3ncc(F)c(-c4ccc5nn(C)c(C(C)C)c5c4)n3)nc2)CC1` [Compound 37, N-(5-((4-ethylpiperazin-1-yl)methyl)pyridin-2-yl)-5-fluoro-4-(3-isopropyl-2-methyl-2H-indazol-5-yl)pyrimidin-2-amine] are 1.47 nM, 1.98 nM, 23.8 nM and 5.66 nM.

Usually IC50 stands for the concentration at which inhibition is half-maximal. Low readings indicate inhibition by little substance, high ones a need for much substance.

(Values after patent US11352341B2, “2H-indazole derivatives as CDK4 and CDK6 inhibitors and therapeutic uses thereof” (Beta Pharma, Inc., priority 2018, dated 2022).)
